{"source": "patent US11279737B2", "about": "“Antimicrobial peptide variants and uses thereof” (ANTINBIO, INC., priority 2019, dated 2022)", "key": {"human erythrocytes": {"system": "human erythrocytes", "assay": "hemolytic assay", "assay_type": "cell-based", "details": "peptide 0.5-500 μg/ml, 37° C., 60 minutes, FIG. 2", "protocol": "For the hemolysis assays, human erythrocytes were obtained from healthy donors, washed 3 times using sterilized PBS and re-suspended to a concentration of 2% (v/v) with PBS. The hegrisin, HCN2016-01 peptide, and plectasin (control) were diluted to concentrations of 500, 250, 125, 62.5, 32, 16, 8, 4, 2, 1, and 0.5 μg/ml. A 100 μL solution of each peptide and a 100 μL suspension of red blood cells were mixed and added to the wells of a 96-well plate. PBS was used as negative control and Triton X-100 was used as a positive control.\nThe samples were incubated at 37° C. for 60 minutes and gently stirred during the incubation period. Then, the samples were centrifuged at 2000 rpm for 5 minutes. A total of 100 μL of the supernatant in each well was transferred to a new 96-well plate and absorbance was measured at 490 nm using a microplate reader (Molecular Devices, USA).\nFor hemolysis assays, human erythrocytes were obtained from healthy donors, washed 3 times using sterilized PBS, and re-suspended to a concentration of 2% (v/v) with PBS. The HCN2016-01 peptide (SEQ ID NO: 2) and plectasin (control) were diluted to concentrations of 500; 250; 125; 62.5; 32; 16; 8; 4; 2; 1; and 0.5 μg/ml. A 100 μL of each peptide solution was mixed with a 100 μL solution of a red blood cell suspension and added to separate wells of a 96-well plate. PBS was used as negative control and Triton X-100 was used as a positive control. The samples were incubated at 37° C. for 60 minutes and gently stirred during the incubation period. The samples were then centrifuged at 2000 rpm for 5 minutes. A total of 100 μL of the supernatant in each well was transferred to a new 96-well plate and absorbance was measured at 490 nm using a microplate reader (Molecular Devices, USA)."}, "S. aureus ATCC 6538 [1]": {"system": "S. aureus ATCC 6538"}, "[2]": {"system": "S. aureus MRSA ATCC 43300"}, "[3]": {"system": "S. epidermidis ATCC 14990"}, "[4]": {"system": "C. perfringens ATCC 13124"}, "S. aureus ATCC 6538 [5]": {"system": "S. aureus ATCC 6538", "assay": "inhibition zone assay", "details": "10 μg peptide per hole, 37° C., 16-18 hours"}}, "note": "Where a SMILES comes first, the peptide text is derived from it. Bridges are numbered along the chain shown (N, C = ends)."}
{"smiles": "CC[C@H](C)[C@@H]1NC(=O)CNC(=O)CNC(=O)[C@H](Cc2ccccc2)NC(=O)[C@H](CCCCN)NC(=O)[C@@H]2CSSC[C@H](NC(=O)[C@H](CO)NC(=O)[C@H](Cc3c[nH]c4ccccc34)NC(=O)CN)C(=O)N[C@@H](CC(N)=O)C(=O)N[C@@H]([C@@H](C)CC)C(=O)N[C@@H](Cc3c[nH]c4ccccc34)C(=O)N[C@@H](CC(N)=O)C(=O)NCC(=O)N[C@@H](CC(N)=O)C(=O)N[C@@H](CC(=O)O)C(=O)N[C@@H](CCC(=O)O)C(=O)N3CCC[C@H]3C(=O)N[C@H]3CSSC[C@H](NC1=O)C(=O)N[C@@H](CCCCN)C(=O)N[C@H](C(=O)N[C@@H](Cc1ccc(O)cc1)C(=O)O)CSSC[C@H](NC(=O)[C@H](Cc1c[nH]cn1)NC(=O)[C@H](CCC(N)=O)NC(=O)[C@H](Cc1c[nH]cn1)NC3=O)C(=O)N[C@@H](CCCCN)C(=O)N[C@@H](CO)C(=O)N[C@@H]([C@@H](C)CC)C(=O)N[C@@H](CCCNC(=N)N)C(=O)NCC(=O)N[C@@H](Cc1ccc(O)cc1)C(=O)N[C@@H](CCCNC(=N)N)C(=O)NCC(=O)NCC(=O)N[C@@H](Cc1ccc(O)cc1)C(=O)N2", "note": "[HCN2016-01] (H-GWSCNIWNGNDEPCHQHCKSIRGYRGGYCKFGGICKCY-OH; disulfide 4-29, 14-35, 18-37 (inferred); N-terminus and C-terminus assumed)", "values": [{"measurement": "cell lysis (hemolysis) of human erythrocytes", "setting": "human erythrocytes", "result": "no significant lysis"}, {"measurement": "Minimal inhibitory concentration (MIC)", "setting": "S. aureus ATCC 6538 [1]; ATCC 6538", "result": 0.30, "unit": "µg/mL"}, {"measurement": "activity against bacteria (in words)", "setting": "S. aureus ATCC 6538 [1]; S. aureus ATCC 6538", "result": "strong activity"}, {"measurement": "antimicrobial activity compared to wild type hegrisin (in words)", "setting": "S. aureus ATCC 6538 [1]; S. aureus ATCC 6538, lower MIC values", "result": "improved antimicrobial activity"}, {"measurement": "Minimal inhibitory concentration (MIC)", "setting": "[2]; ATCC 43300", "result": 0.73, "unit": "µg/mL"}, {"measurement": "activity against bacteria (in words)", "setting": "[2]; S. aureus MRSA ATCC 43300", "result": "strong activity"}, {"measurement": "antimicrobial activity compared to wild type hegrisin (in words)", "setting": "[2]; S. aureus MRSA ATCC 43300", "result": "improved antimicrobial activity"}, {"measurement": "Minimal inhibitory concentration (MIC)", "setting": "[3]; ATCC 14990", "result": 0.31, "unit": "µg/mL"}, {"measurement": "activity against bacteria (in words)", "setting": "[3]; S. epidermidis ATCC 14990", "result": "strong activity"}, {"measurement": "antimicrobial activity compared to wild type hegrisin (in words)", "setting": "[3]; S. epidermidis ATCC 14990", "result": "improved antimicrobial activity"}, {"measurement": "Minimal inhibitory concentration (MIC)", "setting": "B. subtilis ATCC 6633; ATCC 6633", "result": 0.50, "unit": "µg/mL"}, {"measurement": "activity against bacteria (in words)", "setting": "B. subtilis ATCC 6633; B. subtilis ATCC 6633", "result": "strong activity"}, {"measurement": "Minimal inhibitory concentration (MIC)", "setting": "L. lactis ATCC 19256", "result": 0.50, "unit": "µg/mL"}, {"measurement": "Minimal inhibitory concentration (MIC)", "setting": "L. rhamnosus ATCC 14957", "result": 32.0, "unit": "µg/mL"}, {"measurement": "Minimal inhibitory concentration (MIC)", "setting": "L. plantarum ATCC 14917", "result": 16.0, "unit": "µg/mL"}, {"measurement": "Minimal inhibitory concentration (MIC)", "setting": "L. delbrueckii ATCC 9649; ATCC 9649", "result": 8.0, "unit": "µg/mL"}, {"measurement": "activity against bacteria (in words)", "setting": "L. delbrueckii ATCC 9649; L. delbrueckii ATCC 9649", "result": "strong activity"}, {"measurement": "Minimal inhibitory concentration (MIC)", "setting": "S. salivarius ATCC 19258; ATCC 19258", "result": 4.0, "unit": "µg/mL"}, {"measurement": "activity against bacteria (in words)", "setting": "S. salivarius ATCC 19258; S. salivarius ATCC 19258", "result": "strong activity"}, {"measurement": "Minimal inhibitory concentration (MIC)", "setting": "B. longum ATCC 15707; ATCC 15707", "result": 8.0, "unit": "µg/mL"}, {"measurement": "activity against bacteria (in words)", "setting": "B. longum ATCC 15707; B. longum ATCC 15707", "result": "strong activity"}, {"measurement": "Minimal inhibitory concentration (MIC)", "setting": "C. acnes ATCC 11827; ATCC 11827", "result": 8.0, "unit": "µg/mL"}, {"measurement": "activity against bacteria (in words)", "setting": "C. acnes ATCC 11827; C. acnes ATCC 11827", "result": "strong activity"}, {"measurement": "activity against bacteria (in words)", "setting": "[4]", "result": "strong activity"}, {"measurement": "Minimal inhibitory concentration (MIC)", "setting": "[4]; ATCC 13124", "result": 6.81, "unit": "µg/mL"}, {"measurement": "Minimal inhibitory concentration (MIC)", "setting": "L. casei ATCC 393", "result": ">500.0", "unit": "µg/mL"}, {"measurement": "Minimal inhibitory concentration (MIC)", "setting": "E. coli ATCC 25922; ATCC 25922", "result": ">500.0", "unit": "µg/mL"}, {"measurement": "activity against bacteria (in words)", "setting": "E. coli ATCC 25922; Gram negative bacteria E. coli", "result": "minimal or no activity"}, {"measurement": "Activity (antimicrobial activity relative to unmodified hegrisin, zones of growth inhibition)", "setting": "S. aureus ATCC 6538 [5]", "result": 2}]}
